Reference: patent US5853731A, “Thromboxane A2 Receptor antagonism and antioxidant action of cinnamophilin and its derivatives, their pharmaceutical compositions and uses” (National Science Council, priority 1997, dated 1998)
Read-outs that look alike come from different tables or passages of the source.

Tests used:
rabbit platelets = experiment: Aggregation of washed rabbit platelet suspension induced by AA, PAF, collagen, U-46619, ADP and thrombin; assay type: cell-based
Procedure: A. Preparation of aggregation inducing agent
1. Collagen (bovine tendon) in 15 mM aqueous acetic acid was homogenized at 4° C. to form a well dispersed suspension in 1 mg/ml and stocked at -70° C. Before using, it was thawed and well homogenized.
2. PAF was dissolved in CCl4 and stocked at […] Before using, it was diluted with deionized water.
3. […] and sodium arachidonate (AA) were dissolved in deionized water for use.
B. Preparation of platelets
A suspension of platelets was prepared according to the reported method. EDTA (100 mM) and the blood obtained from rabbit's ear vein were mixed in the ratio of 1:4, and immediately centrifuged (120× g) at room temperature for 10 minutes. Platelet-rich plasma was subjected to further centrifuge (500× g) for another 10 minutes. After the plasma was removed, the platelets in the lower layer were suspended in the Tyrode solution containing EDTA (2 mM) and bovine serum albumin (3.5 mg/ml), and subjected to centrifuge (500× g) again for 10 minutes. The platelets obtained were suspended in a Tyrode solution containing no EDTA, and was adjusted to about 4.5×10^8 cells/ml by a cell counter. 1 mM of calcium ion (Ca^2+) was added to the suspension. 30 minutes after the addition, the experiment was conducted. The composition of Tyrode […]: NaCl (136.9), KCl (2.7), NaH2 PO4 (0.4), NaHCO3 (11.9), glucose (11.1).
C. Platelet aggregation and ATP release reaction test
The method reported by Born (J. Physiol. 168, 178, 1963) was used to determine the platelet aggregation by a Lumi-aggregometer (Model 1020, Payton, Canada). Platelet suspension (0.4 ml) was added into a small glass tube coated with silicone, and stirred at 900 rpm with a small magnetic stirrer. Unless otherwise specified, the antagonist was added 1 minute before the inducing agent, and all the reactions were carried out at 37° C. The aggregation was calculated by following formula: […]
aggregation (% )=(light absorption before adding inducing agent-light absorption after adding inducing agent)/(light absorption before adding inducing agent-light absorption of Tyrode solution)×100% […]
| Platelets were precincubated with 1a, 1b, 1c, 1e, 2 or DMSO (0.5%, | control) at 37° C. for 3 min, then the inducer was added.

TX synthase = experiment: Large scale screening test: TX synthase inhibition; assay type: biochemical
thromboxane B2 formation = experiment: Thromboxane B2 formation caused by arachidonic acid (AA); assay type: cell-based; settings: for Thromboxane B2: caused by AA
guinea-pig trachea = target: T1, guinea-pig trachea (Cavia porcellus, UniProt A0A286Y4I8); experiment: Guinea-pig tracheal contraction caused by U-46619; assay type: cell-based; settings: for activity at 10 µM / activity at 30 µM / activity at 100 µM: guinea pig, read-out: Contraction (% of maximal contraction); for activity at 10 µM: cinnamophilin 10 μM; for activity at 30 µM: cinnamophilin 30 μM; for activity at 100 µM: cinnamophilin 100 μM
T1 construct: Tracheae from guinea-pigs were dissected out; from tissue; host or cells: guinea-pig trachea
T1 sequence (A0A286Y4I8 1-347): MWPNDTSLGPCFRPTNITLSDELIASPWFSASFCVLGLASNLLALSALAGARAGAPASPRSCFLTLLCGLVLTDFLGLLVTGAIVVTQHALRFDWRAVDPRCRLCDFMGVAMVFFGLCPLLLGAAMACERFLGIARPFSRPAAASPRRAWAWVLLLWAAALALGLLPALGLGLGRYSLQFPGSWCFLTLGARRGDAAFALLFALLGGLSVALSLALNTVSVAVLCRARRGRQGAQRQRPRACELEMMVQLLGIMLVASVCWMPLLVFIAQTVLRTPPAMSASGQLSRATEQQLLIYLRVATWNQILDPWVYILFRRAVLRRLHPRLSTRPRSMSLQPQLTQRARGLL
Procedure: B. Guinea-pig tracheal contraction
Tracheae from guinea-pigs were dissected out, transferred to a dish containing Krebs solution and cut transversely between the segments of cartilage. Several of these, usually about 5, were tied together so as to form a chain, which was then mounted in Krebs solution at 37° C., gassed with 95% O2 plus 5% CO2. One end of the chain was attached to a fixed pin in the bath and the other to a transducer connected to a Grass polygraph. Resting tension of each tissue was set at 1 g, Tracheae were allowed to equilibrate for at least 1 hr and washed-periodically.
Cumulative concentration-response curves were obtained by application of various concentrations of spasmogens for 15-18 min at 3 minutes intervals. Tracheal rings were pre-incubated with cinnamophilin for 15 min, then various concentrations of spasmogens were added for 15-18 min at 3 min intervals. Results were expressed as percentage of the maximal control response for each agonist.

COc1cc(CC(C)C(C)C(=O)c2ccc(O)c(OC)c2)ccc1O (centres unmarked) [Compound 1, cinnamophilin]
Aggregation (%) (rabbit platelets; inducer AA (100 μM), conc 5 μM, control 92.1 ± 1.3): 83.8 ± 4.6% | Aggregation (%) (rabbit platelets; inducer AA (100 μM), conc 10 μM, control 92.1 ± 1.3): 79.0 ± 6.3% | Aggregation (%) (rabbit platelets; inducer AA (100 μM), conc 20 μM, control 92.1 ± 1.3): 42.4 ± 3.0% | Aggregation (%) (rabbit platelets; inducer AA (100 μM), conc 50 μM, control 92.1 ± 1.3): 3.8 ± 3.5% | Aggregation (%) (rabbit platelets; inducer ADP (20 μM), conc 300 μM, control 81.6 ± 3.0): 75.6 ± 9.2% | Aggregation (%) (rabbit platelets; inducer PAF (2 ng/ml), conc 300 μM, control 91.7 ± 2.0): 83.5 ± 8.0% | Aggregation (%) (rabbit platelets; inducer U-46619 (1 μM), conc 200 μM, control 89.4 ± 1.2): 22.1 ± 2.4% | Aggregation (%) (rabbit platelets; inducer collagen (10 μg/ml), conc 50 μM, control 93.6 ± 1.0): 87.0 ± 1.6% | Aggregation (%) (rabbit platelets; inducer collagen (10 μg/ml), conc 100 μM, control 93.6 ± 1.0): 44.7 ± 10.0% | Aggregation (%) (rabbit platelets; inducer collagen (10 μg/ml), conc 200 μM, control 93.6 ± 1.0): 0.0 ± 0.0% | Aggregation (%) (rabbit platelets; inducer thrombin (0.1 U/ml), conc 300 μM, control 94.8 ± 2.0): 94.6 ± 1.4% | TX synthase inhibitory property (TX synthase): TX synthase inhibitory | TXA2 formation caused by AA (thromboxane B2 formation; 0.03-10 μM): inhibit markedly the TXA2 formation | Thromboxane B2 (thromboxane B2 formation; conc 0.01 μM): 371 ± 35 ng/mL | Thromboxane B2 (thromboxane B2 formation; conc 0.03 μM): 278 ± 25 ng/mL | Thromboxane B2 (thromboxane B2 formation; conc 0.1 μM): 200 ± 41 ng/mL | Thromboxane B2 (thromboxane B2 formation; conc 0.3 μM): 128 ± 25 ng/mL | Thromboxane B2 (thromboxane B2 formation; conc 1 μM): 69 ± 25 ng/mL | Thromboxane B2 (thromboxane B2 formation; conc 3 μM): 28 ± 10 ng/mL | Thromboxane B2 (thromboxane B2 formation; conc 10 μM): 20 ± 5 ng/mL | Kb (guinea-pig trachea; against U-46619, read-out: pA2, guinea-pig tracheal contraction induced by U-46619 (converted)): 6.31 µM | activity at 10 µM (guinea-pig trachea; U-46619 0.01 μM): 5.7 ± 2% | activity at 10 µM (guinea-pig trachea; U-46619 0.02 μM): 17.1 ± 4.5% | activity at 10 µM (guinea-pig trachea; U-46619 0.05 μM): 35 ± 5% | activity at 10 µM (guinea-pig trachea; U-46619 0.1 μM): 52 ± 5% | activity at 10 µM (guinea-pig trachea; U-46619 0.2 μM): 70 ± 6% | activity at 10 µM (guinea-pig trachea; U-46619 0.5 μM): 79 ± 4% | activity at 10 µM (guinea-pig trachea; U-46619 1 μM): 85 ± 5% | activity at 10 µM (guinea-pig trachea; U-46619 2 μM): 90 ± 4% | activity at 10 µM (guinea-pig trachea; U-46619 5 μM): 94 ± 4% | activity at 30 µM (guinea-pig trachea; U-46619 0.02 μM): 3% | activity at 30 µM (guinea-pig trachea; U-46619 0.05 μM): 11 ± 3% | activity at 30 µM (guinea-pig trachea; U-46619 0.1 μM): 22 ± 4% | activity at 30 µM (guinea-pig trachea; U-46619 0.2 μM): 35 ± 4% | activity at 30 µM (guinea-pig trachea; U-46619 0.5 μM): 52 ± 5% | activity at 30 µM (guinea-pig trachea; U-46619 1 μM): 67 ± 4% | activity at 30 µM (guinea-pig trachea; U-46619 2 μM): 80 ± 4.5% | activity at 30 µM (guinea-pig trachea; U-46619 5 μM): 88 ± 5% | activity at 30 µM (guinea-pig trachea; U-46619 10 μM): 92 ± 5% | activity at 100 µM (guinea-pig trachea; U-46619 0.05 μM): 0% | activity at 100 µM (guinea-pig trachea; U-46619 0.1 μM): 5 ± 3% | activity at 100 µM (guinea-pig trachea; U-46619 0.2 μM): 15 ± 3% | activity at 100 µM (guinea-pig trachea; U-46619 0.5 μM): 27 ± 4.5% | activity at 100 µM (guinea-pig trachea; U-46619 1 μM): 41 ± 4% | activity at 100 µM (guinea-pig trachea; U-46619 2 μM): 55 ± 5.7% | activity at 100 µM (guinea-pig trachea; U-46619 5 μM): 68 ± 5.7% | activity at 100 µM (guinea-pig trachea; U-46619 10 μM): 78 ± 3%
